Reference: PubChem BioAssay AID2060892 (Molecular Pharmacology Branch, DTP, NCI, 2025)

Test system: HOP-62 complex spheroids with HUVEC/MSC, viability
Test: Anticancer human tumor HOP-62 cell line growth inhibition [RAS];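 also: spheroids exposed to agents for seven days before readout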;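 as to viability, T/C: 100% = DMSO vehicle control viability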
Conditions: for IC50: curve of first compound; for viability, T/C: stronger effect = lower value
In short: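 Tumour cells grown as complex spheroids with HUVEC endothelial cells and mesenchymal stem cells, treated with RAS pathway inhibitor combinations. Each agent spans half-log steps from near clinical Cmax, or 10 microM where Cmax is unknown.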

[1] = second compound 0.000949 µM, first compound 0.0316 µM
[2] = second compound 0.000949 µM, first compound 0.1 µM
[3] = second compound 0.000949 µM, first compound 0.316 µM
[4] = second compound 0.000949 µM, first compound 1 µM
[5] = second compound 0.000949 µM, first compound 3.16 µM
[6] = second compound 0.000949 µM, first compound 10 µM
[7] = second compound 0.003 µM, first compound 0.0316 µM
[8] = second compound 0.003 µM, first compound 0.1 µM
[9] = second compound 0.003 µM, first compound 0.316 µM
[10] = second compound 0.003 µM, first compound 1 µM
[11] = second compound 0.003 µM, first compound 3.16 µM
[12] = second compound 0.003 µM, first compound 10 µM
[13] = second compound 0.00949 µM, first compound 0.0316 µM
[14] = second compound 0.00949 µM, first compound 0.1 µM
[15] = second compound 0.00949 µM, first compound 0.316 µM
[16] = second compound 0.00949 µM, first compound 1 µM
[17] = second compound 0.00949 µM, first compound 3.16 µM
[18] = second compound 0.00949 µM, first compound 10 µM
[19] = second compound 0.03 µM, first compound 0.0316 µM
[20] = second compound 0.03 µM, first compound 0.1 µM
[21] = second compound 0.03 µM, first compound 0.316 µM
[22] = second compound 0.03 µM, first compound 1 µM
[23] = second compound 0.03 µM, first compound 3.16 µM
[24] = second compound 0.03 µM, first compound 10 µM
[25] = second compound 0.0949 µM, first compound 0.0316 µM
[26] = second compound 0.0949 µM, first compound 0.1 µM
[27] = second compound 0.0949 µM, first compound 0.316 µM
[28] = second compound 0.0949 µM, first compound 1 µM
[29] = second compound 0.0949 µM, first compound 3.16 µM
[30] = second compound 0.0949 µM, first compound 10 µM
[31] = second compound 0.3 µM, first compound 0.0316 µM
[32] = second compound 0.3 µM, first compound 0.1 µM
[33] = second compound 0.3 µM, first compound 0.316 µM
[34] = second compound 0.3 µM, first compound 1 µM
[35] = second compound 0.3 µM, first compound 3.16 µM
[36] = second compound 0.3 µM, first compound 10 µM

CC(Nc1ccc2c(c1)OCCn1cc(N3C(=O)OCC3C(F)F)nc1-2)C(N)=O (stereo unspecified) + CCn1c(-c2cccnc2C(C)OC)c2c3cc(ccc31)N1CCOC(CC(NC(=O)C(C(C)C)N(C)C(=O)C3(F)CCN(C(=O)C#CC(C)(C)N(C)C)CC3)C(=O)N3CCCC(N3)C(=O)OCC(C)(C)C2)C1
IC50 (second compound 0.000949 µM): 0.659 µM | IC50 (second compound 0.003 µM): 0.649 µM | IC50 (second compound 0.00949 µM): 0.326 µM | IC50 (second compound 0.03 µM): 0.26 µM | IC50 (second compound 0.0949 µM): 0.182 µM | IC50 (second compound 0.3 µM): 0.152 µM | viability, T/C [1]: 99.7% | viability, T/C [2]: 75.4% | viability, T/C [3]: 45.1% | viability, T/C [4]: 54.2% | viability, T/C [5]: 50.6% | viability, T/C [6]: 23.9% | viability, T/C [7]: 87% | viability, T/C [8]: 85.9% | viability, T/C [9]: 42.3% | viability, T/C [10]: 50.9% | viability, T/C [11]: 36.6% | viability, T/C [12]: 19.6% | viability, T/C [13]: 99.3% | viability, T/C [14]: 60.1% | viability, T/C [15]: 51.9% | viability, T/C [16]: 46.9% | viability, T/C [17]: 32.1% | viability, T/C [18]: 22.4% | viability, T/C [19]: 124% | viability, T/C [20]: 59.4% | viability, T/C [21]: 55.2% | viability, T/C [22]: 42.3% | viability, T/C [23]: 25.6% | viability, T/C [24]: 22.8% | viability, T/C [25]: 103% | viability, T/C [26]: 53.9% | viability, T/C [27]: 43.9% | viability, T/C [28]: 37% | viability, T/C [29]: 20.1% | viability, T/C [30]: 19% | viability, T/C [31]: 58.5% | viability, T/C [32]: 49.8% | viability, T/C [33]: 47.9% | viability, T/C [34]: 30.2% | viability, T/C [35]: 25.2% | viability, T/C [36]: 19.1%

CC(=O)OC12COC1CC(O)C1(C)C(=O)C(O)C3=C(C)C(OC(=O)C(O)C(NC(=O)OC(C)(C)C)c4ccccc4)CC(O)(C(OC(=O)c4ccccc4)C21)C3(C)C (stereo unspecified) + CCn1c(-c2cccnc2C(C)OC)c2c3cc(ccc31)N1CCOC(CC(NC(=O)C(C(C)C)N(C)C(=O)C3(F)CCN(C(=O)C#CC(C)(C)N(C)C)CC3)C(=O)N3CCCC(N3)C(=O)OCC(C)(C)C2)C1
IC50 (second compound 0.000949 µM): < 0.0316 µM | IC50 (second compound 0.003 µM): < 0.0316 µM | IC50 (second compound 0.00949 µM): < 0.0316 µM | IC50 (second compound 0.03 µM): < 0.0316 µM | IC50 (second compound 0.0949 µM): < 0.0316 µM | IC50 (second compound 0.3 µM): < 0.0316 µM | viability, T/C [1]: 31% | viability, T/C [2]: 29.6% | viability, T/C [3]: 20.6% | viability, T/C [4]: 34.7% | viability, T/C [5]: 48.4% | viability, T/C [6]: 45.6% | viability, T/C [7]: 32.6% | viability, T/C [8]: 32.1% | viability, T/C [9]: 37% | viability, T/C [10]: 33.3% | viability, T/C [11]: 52.1% | viability, T/C [12]: 39.7% | viability, T/C [13]: 30.8% | viability, T/C [14]: 31.6% | viability, T/C [15]: 29.4% | viability, T/C [16]: 36.3% | viability, T/C [17]: 39.3% | viability, T/C [18]: 43.2% | viability, T/C [19]: 31.4% | viability, T/C [20]: 32.9% | viability, T/C [21]: 31% | viability, T/C [22]: 35.4% | viability, T/C [23]: 33.1% | viability, T/C [24]: 46.4% | viability, T/C [25]: 34.2% | viability, T/C [26]: 34.1% | viability, T/C [27]: 36.6% | viability, T/C [28]: 37.3% | viability, T/C [29]: 34.9% | viability, T/C [30]: 42.1% | viability, T/C [31]: 28.1% | viability, T/C [32]: 40.2% | viability, T/C [33]: 31.8% | viability, T/C [34]: 37.9% | viability, T/C [35]: 33.5% | viability, T/C [36]: 36.9%

CC1(C)CCC(Nc2ncc(C(F)(F)F)c(-c3c[nH]c4c(P(C)(C)=O)c(C#N)ccc34)n2)CN1 (stereo unspecified) + CCn1c(-c2cc(N3CCN(C)CC3)cnc2C(C)OC)c2c3cc(ccc31)-c1csc(n1)CC(NC(=O)C1CC1C)C(=O)N1CCCC(N1)C(=O)OCC(C)(C)C2
IC50 (second compound 0.000949 µM): > 0.3 µM | IC50 (second compound 0.003 µM): 0.274 µM | IC50 (second compound 0.00949 µM): > 0.3 µM | IC50 (second compound 0.03 µM): > 0.3 µM | IC50 (second compound 0.0949 µM): > 0.3 µM | IC50 (second compound 0.3 µM): < 0.000949 µM | viability, T/C (second compound 0.000949 µM, first compound 0.000949 µM): 106% | viability, T/C (second compound 0.000949 µM, first compound 0.003 µM): 95.9% | viability, T/C (second compound 0.000949 µM, first compound 0.00949 µM): 54.9% | viability, T/C (second compound 0.000949 µM, first compound 0.03 µM): 71.5% | viability, T/C (second compound 0.000949 µM, first compound 0.0949 µM): 76.7% | viability, T/C (second compound 0.000949 µM, first compound 0.3 µM): 38.8% | viability, T/C (second compound 0.003 µM, first compound 0.000949 µM): 83% | viability, T/C (second compound 0.003 µM, first compound 0.003 µM): 73% | viability, T/C (second compound 0.003 µM, first compound 0.00949 µM): 61.9% | viability, T/C (second compound 0.003 µM, first compound 0.03 µM): 74% | viability, T/C (second compound 0.003 µM, first compound 0.0949 µM): 79.7% | viability, T/C (second compound 0.003 µM, first compound 0.3 µM): 48% | viability, T/C (second compound 0.00949 µM, first compound 0.000949 µM): 68.3% | viability, T/C (second compound 0.00949 µM, first compound 0.003 µM): 52.8% | viability, T/C (second compound 0.00949 µM, first compound 0.00949 µM): 67.2% | viability, T/C (second compound 0.00949 µM, first compound 0.03 µM): 68.7% | viability, T/C (second compound 0.00949 µM, first compound 0.0949 µM): 67.8% | viability, T/C (second compound 0.00949 µM, first compound 0.3 µM): 54.1% | viability, T/C (second compound 0.03 µM, first compound 0.000949 µM): 50.9% | viability, T/C (second compound 0.03 µM, first compound 0.003 µM): 56.4% | viability, T/C (second compound 0.03 µM, first compound 0.00949 µM): 72.1% | viability, T/C (second compound 0.03 µM, first compound 0.03 µM): 74.3% | viability, T/C (second compound 0.03 µM, first compound 0.0949 µM): 51.6% | viability, T/C (second compound 0.03 µM, first compound 0.3 µM): 66% | viability, T/C (second compound 0.0949 µM, first compound 0.000949 µM): 49.5% | viability, T/C (second compound 0.0949 µM, first compound 0.003 µM): 59% | viability, T/C (second compound 0.0949 µM, first compound 0.00949 µM): 64.4% | viability, T/C (second compound 0.0949 µM, first compound 0.03 µM): 66.1% | viability, T/C (second compound 0.0949 µM, first compound 0.0949 µM): 51.4% | viability, T/C (second compound 0.0949 µM, first compound 0.3 µM): 70.2% | viability, T/C (second compound 0.3 µM, first compound 0.000949 µM): 43.8% | viability, T/C (second compound 0.3 µM, first compound 0.003 µM): 59.2% | viability, T/C (second compound 0.3 µM, first compound 0.00949 µM): 70.8% | viability, T/C (second compound 0.3 µM, first compound 0.03 µM): 56.9% | viability, T/C (second compound 0.3 µM, first compound 0.0949 µM): 66.1% | viability, T/C (second compound 0.3 µM, first compound 0.3 µM): 70.7%
